# Results reported in article PMC12081029, “Structural, Spectroscopic, and Docking Analysis of N,O‐Donor Ligand Metal Complex Nanoparticles With Hypolipidemic Effects via Lipoprotein Lipase Activation in High‐Fat Diet Mice” (Chemistry & Biodiversity, 2024).
# “And” between values parts separate entries of the source, which are not always exact repeats. Identical values can stand only once. Counter-ions that a name gives are not always drawn. Like-named read-outs stand apart in the source and are kept apart here.
# How the values were obtained:
# [1] = system: Staphylococcus aureus; test: Agar diffusion, inhibition zone (ZOI) and activity index; conditions: for ZOI / AI: Staphylococcus aureus; for ZOI: 10^−3 M in DMF, 5 mm holes, 20 h at 37°C; for AI: ZOI of compound / ZOI of standard (ampicillin) × 100
# [2] = system: Aspergillus niger; test: MIC determination
# [3] = system: Salmonella typhi; test: Agar diffusion, inhibition zone (ZOI) and activity index; type: cell-based; conditions: for ZOI: 10^−3 M in DMF, 5 mm holes, 20 h at 37°C
# [4] = system: Escherichia coli; test: MIC / MBC determination
# [5] = system: Aspergillus niger; test: Agar diffusion, inhibition zone (ZOI) and activity index; conditions: for ZOI: 10^−3 M in DMF, 5 mm holes, 7 days at 30°C
# [6] = system: Escherichia coli; test: as above; conditions: for ZOI: 10^−3 M in DMF, 5 mm holes, 20 h at 37°C
# [7] = system: lipoprotein lipase (L. lipase); test: Serum L. lipase activity in high-fat diet mice (fluorometric kit); type: in vivo; conditions: HFD C57BL/6 mice; for L. lipase (serum enzyme activity): 4 mg kg^−1 body weight in DMF, 3 months, mean ± SD; for mean L. lipase activity: rounded, 4 mg kg^−1 body weight
# Procedure: (§1) This study employed 8‐week‐old male C57BL/6 mice of matched weight (around 20–25 g) from an inbred “genetically identical” strain. The mice were purchased from the National Research Center's Animal House. Then, they were subdivided into five groups, each group containing eight mice; four groups were treated with CETZ.2HCl (antihistamine drug) and its metal complexes, whereas one group was left untreated and classified as a control group. Animals were housed in modular plastic veterinary cages at air‐conditioned room, under pathogen‐free conditions. Mice were fed HFD, which consisted of carbs 42.0%, fat 23.0%, protein 17.0%, fiber 3.0%, minerals 5.0%, and moisture 10.0% for 3 months, together with administration of either CETZ.2HCl or its metal complexes (4 mg kg ^−1 body weight) in DMF [37]. Experiments were performed in accordance with the regulations of the Animal Care and Use Committee of the College of Veterinary Medicine, Mansoura University (MU‐ACUC), Egypt; MU‐ACUC (PHARM.R.24.02.30), complied with “Guide for the Care and Use of Laboratory Animals” (National Research Council publication 8th ed., USA, 2011).
# (§2) Specimens of blood were gathered from the retro‐orbital sinus, under halothane (1.5 percent v/v halothane in oxygen) anesthesia via inhalation. The collected blood was allowed to clot, by centrifugation at 1600 rpm for 20 min, to obtain serum. Isolated sera were maintained at −80°C until tests of liver function in addition to lipid profiles were performed. For estimation of L. lipase activity, fluorometric L. lipase activity assay kit was utilized following the manufacturer's protocol (Cat. No. STA‐610, Cell BIOLABS INC., San Diego, USA). Serum T. chol. LDL, HDL, TG, ALT (alanine aminotransferase), AST (aspartate aminotransferase), and ALP (alkaline phosphatase) were examined with Roche kits using COBAS Integra 400 and COBAS Integra‐400 plus (Roche Diagnostics Limited, Switzerland).
# [8] = system: Aspergillus terreus; test: MIC determination
# [9] = system: Aspergillus terreus; test: Agar diffusion, inhibition zone (ZOI) and activity index; conditions: for ZOI: 10^−3 M in DMF, 5 mm holes, 7 days at 30°C; for AI: ZOI of compound / ZOI of standard (colitrimazole) × 100
# [10] = system: Bacillus subtilis; test: MIC / MBC determination
# [11] = Serum liver function enzymes in high-fat diet mice; type: in vivo; conditions: HFD C57BL/6 mice, 4 mg kg^−1 body weight, 3 months, mean ± SD
# Procedure: as §1, §2
# [12] = system: Staphylococcus aureus; test: MIC / MBC determination
# [13] = system: Salmonella typhi; test: MIC / MBC determination; type: cell-based
# [14] = system: Bacillus subtilis; test: Agar diffusion, inhibition zone (ZOI) and activity index; conditions: for ZOI: 10^−3 M in DMF, 5 mm holes, 20 h at 37°C
# [15] = Serum lipid profile in high-fat diet mice; type: in vivo; conditions: HFD C57BL/6 mice, 4 mg kg^−1 body weight, 3 months, mean ± SD
# Procedure: as §1, §2
# [16] = system: Staphylococcus aureus; conditions: cited from earlier work; for Staphylococcus aureus (inhibition zone): in mm
# [17] = system: Escherichia coli; conditions: cited from earlier work; for Escherichia coli (inhibition zone): in mm
# [18] = system: Bacillus subtilis; conditions: cited from earlier work; for Bacillus subtillis (inhibition zone): in mm
# [19] = Salmonella typhi, ZOI of compound / ZOI of standard (gentamicin) × 100
# [20] = Escherichia coli, ZOI of compound / ZOI of standard (gentamicin) × 100
# [21] = Bacillus subtilis, ZOI of compound / ZOI of standard (ampicillin) × 100
# [22] = Table 9, preceding research ref [9]
# [23] = Table 9, preceding research ref [7]
# [24] = Table 9, preceding research ref [11]
Compound,ZOI ([3]; Salmonella typhi),"AI [3, 19] [%]",MBC [4],MIC [4] [µg/mL],ZOI ([6]; Escherichia coli),"AI [6, 20] [%]",L. lipase (serum enzyme activity) [7],mean L. lipase activity [7] [U L^−1],MIC [8],ZOI [9],AI [9] [%],MIC [10],ALP [11] [U L^−1],ALT [11] [U L^−1],AST [11],ZOI ([14]; Bacillus subtilis),"AI [14, 21] [%]",HDL [15] [mg/dL],LDL [15] [mg/dL],Total Chol. [15] [mg/dL],further results
"O=C(O)COCCN1CCN(C(c2ccccc2)c2ccc(Cl)cc2)CC1 (racemic) [CETZ.2HCl, (RS)‐2‐[2‐[4‐[(4‐chlorophenyl)phenylmethyl]piperazine‐L‐yl]‐ethoxy]acetic acid, dihydrochloride, reference compound]",7.7 ±0.58 mm,37.2,0.091 µg/mL,0.075 ± 0.01,8.5 ±0.50 mm,43.6,104.88± 26.5 U/L and 104.88 U/L,104.9,0.025 µg/mL and 0.025 ± 0.01 µg/mL,10.3 ±0.27 mm,58.9,0.05 µg/mL,90.5 ± 16.79,245.63 ± 43.99,345.5 ± 57.73 U L^−1,12.1 ± 0.15 mm,42.6,85.25 ± 6.23,93.25 ± 8.15,230.38,"ZOI [1]: 9.4 ± 0.02 mm; AI [1]: 41.4%; MIC [2]: 0.025 µg/mL and 0.025 ± 0.01 µg/mL; ZOI ([5]; Aspergillus niger): 12.5 ±0.36 mm; MBC [12]: 0.049 µg/mL and 0.049 ± 0.01 µg/mL; MIC [12]: 0.025 µg/mL and 0.025 ± 0.02 µg/mL; MBC ([13]; Salmonella enterica, TYPHI): 0.037 ± 0.01 µg/mL; Trig [15]: 80.5 ± 10.18 mg/dL"
"O.c1cnc2c(c1)ccc1cccnc12 [Phen.H2O, 1,10‐phenanthroline monohydrate]",,,,,,,,,,,,0.025 µg/mL and 0.025 ± 0.03 µg/mL,,,,1.1 ± 0.16 mm,3.87,,,,MBC [10]: 0.032 µg/mL
O.O.O.O=C([O-])COCCN1CCN(C(c2ccccc2)c2ccc(Cl)cc2)CC1.O=C([O-])COCCN1CCN(C(c2ccccc2)c2ccc(Cl)cc2)CC1.[Cu+2] (stereo not drawn) [[Cu(CETZ)2(H2O)2].H2O],,,,,,,,,,,,,,,,,,,,,"Staphylococcus aureus (inhibition zone) [16, 22]: 15.21 ± 0.46; Escherichia coli (inhibition zone) [17, 22]: 13.43 ± 0.39; Bacillus subtillis (inhibition zone) [18, 22]: 18.31 ± 0.55"
CC(N)C(=O)[O-].O.O=C([O-])COCCN1CCN(C(c2ccccc2)c2ccc(Cl)cc2)CC1.[Cu+2] (stereo not drawn) [[Cu(CETZ)(Ala)(H2O)]],,,,,,,,,,,,,,,,,,,,,"AI ([16]; Table 9, Staphylococcus aureus ref [7]): 56.93; Staphylococcus aureus (inhibition zone) [16, 23]: 15.6 ± 0.4; AI ([17]; Table 9, Escherichia coli ref [7]): 52.91; Escherichia coli (inhibition zone) [17, 23]: 11.8 ± 0.5; AI ([18]; Table 9, Bacillus subtillis ref [7]): 42.9; Bacillus subtillis (inhibition zone) [18, 23]: 13.9 ± 0.3"
"O.O.O=C([O-])COCCN1CCN(C(c2ccccc2)c2ccc(Cl)cc2)CC1.O=[N+]([O-])[O-].[Cu+2].c1cnc2c(c1)ccc1cccnc12 (stereo not drawn) [complex (1), [Cu(CETZ)(Phen)(H2O)2(NO3)]]",30.0 ^+ ^3 ±0.10 mm,144.9,0.15 0.02 µg mL^−1,0.1 ± 0.006,32.5 ^+ ^3 ±0.30 mm,166.6,127.88 U/L,127.9,0.075 µg/mL and 0.075 ± 0.005 µg/mL,10.5^NS ±1.06 mm,60.0,0.050 ± 0.007 µg/mL,88 ± 12.64,228.63 ± 50.57,274.63 ± 36.40^NS U L^−1,23.3 ^+ ^2 ± 0.66 mm,82.04,80.75 ± 8.26,60.5 ± 5.78,138.88 ± 10.92,"ZOI [1]: 17.3 ^+ ^2 ±0.33 mm; AI [1]: 76.2%; Staphylococcus aureus (inhibition zone) ([1]; Table 9, this work): 17.3 ^+ ^2 ± 0.33; MIC [2]: 0.050 µg/mL and 0.050 ± 0.02 µg/mL; AI ([3]; Table 9, Salmonella typhi, this work): 59.9; Salmonella typhi (inhibition zone) ([3]; Table 9, this work): 30.0 ^+ ^3 ± 0.10; ZOI ([5]; Aspergillus niger): 13.1^NS ±0.38 mm; AI ([5]; Aspergillus niger, ZOI of compound / ZOI of standard (colitrimazole) × 100): 66.16%; AI ([5]; Table 9, Aspergillus niger, this work): 88.89; Aspergillus niger (inhibition zone) ([5]; Table 9, this work): 13.1^NS ± 0.38; AI ([6]; Table 9, Escherichia coli, this work): 113.3; Escherichia coli (inhibition zone) ([6]; Table 9, this work): 32.5 ^+ ^3 ± 0.30; L. lipase (serum enzyme activity) ([7]; listed as Cu-CETZ Complex): 127.88±11.72 U/L; MBC [12]: 0.086 µg/mL and 0.086 ± 0.004 µg/mL; MIC [12]: 0.075 µg/mL and 0.075 ± 0.03 µg/mL; MBC ([13]; Salmonella typhi): 0.081 ± 0.01 µg/mL; MIC ([13]; Salmonella typhi): 0.075 µg/mL and 0.075 ± 0.006 µg/mL; AI ([14]; Table 9, Bacillus subtillis, this work): 55.3; Bacillus subtillis (inhibition zone) ([14]; Table 9, this work): 23.3 ^+ ^2 ± 0.66; Trig [15]: 77.25 ± 9.3 mg/dL"
"CC(=O)[O-].O.O.O=C([O-])COCCN1CCN(C(c2ccccc2)c2ccc(Cl)cc2)CC1.[Cd+2].c1cnc2c(c1)ccc1cccnc12 (stereo not drawn) [complex (3), [Cd(CETZ)(Phen)(H2O)2(CH3COO)]]",19.5 ^+ ^2 ±0.85 mm,94.2,0.23 ± 0.053 µg/mL,0.1 ± 0.02,28.5 ^+ ^2 ±0.83 mm,146.1,52.38 U/L,52.4,0.100 µg/mL and 0.1 ± 0.01 µg/mL,14.7 ^+ ^1 ±0.55 mm,84.0,0.075 ± 0.006 µg/mL,123.63 ± 11.45,283.75 ± 23.49,374.88 ± 36.33 U L^−1,32.0 ^+ ^3 ±0.68 mm,112.68,44.63 ± 12.92,89.25 ± 9.45,283.75,L. lipase (serum enzyme activity) ([7]; listed as Cd-CETZ Complex): 52.38±9.6 U/L; MBC ([13]; Salmonella typhi): 0.066 ± 0.014 µg/mL; MIC ([13]; Salmonella typhi): 0.050 µg/mL and 0.050 ± 0.01 µg/mL; Trig [15]: 188.75 mg/dL
[Cu(AMBI)(CETZ)(NO3)(H2O)2],,,,,,,,,,,,,,,,,,,,,"AI ([16]; Table 9, Staphylococcus aureus ref [11]): 96.72; Staphylococcus aureus (inhibition zone) [16, 24]: 26.5 ± 0.6; AI ([17]; Table 9, Escherichia coli ref [11]): 95.10; Escherichia coli (inhibition zone) [17, 24]: 21.3 ± 0.4; AI ([18]; Table 9, Bacillus subtillis ref [11]): 89.2; Bacillus subtillis (inhibition zone) [18, 24]: 28.9 ± 0.3"
